Reference: patent US10723998B2, “Application of ethyl p-methoxycinnamate and derivatives thereof in maintaining self-renewal and pluripotency of stem cells” (NORTHEAST NORMAL UNIVERSITY, priority 2015, dated 2020)

System: Oct4 promoter
Assay: Luciferase reporter gene assay of derivatives on Oct4 expression (co-transfection with pCMV-β-gal) in P19 cells
Format: cell-based, mouse
Conditions: 5 μg/mL, 12-24 h, DMSO control, FIG. 6
Protocol: The effect of derivatives of ethyl p-methoxycinnamate on Oct4 expression was assayed by a luciferase reporter gene method, the derivatives including diethyl 4-methoxybenzalmalonate, ethyl 3-(3-methoxy-4-methoxycarbonylmethoxyphenyl)acrylate, diethyl 4-acetoxybenzylidenemalonate, chlorogenic acid, ethyl cinnamate, 3-cinnamoyloxypropyl 3-propylacrylate, ethyl 2-cyano-3,3-diphenylacrylate, ethyl 2,6-dichlorocinnamate, diethyl 4-chlorobenzylidenemalonate, ethyl 4-aminocinnate, ethyl 3-cyanocinnamate, ethyl 4-nitrocinnamate, 3-[3-(4-methoxyphenyl)acryloyloxymethyl]benzyl 3-(4-methoxyphenyl)acrylate, 4-[3-(4-methoxyphenyl)acryloyloxy]butyl-2-ynyl 3-(4-methoxyphenyl)acrylate, ethyl indole-2-carboxylate, and ethyl 6-methoxy-1-benzofuran-2-carboxylate.
One day before transfection, mouse teratoma cells P19 were inoculated into a 24-well cell culture plate at a density of 1×10^5 cells/well, to make the cells grown to about 80% before transfection. A liposomal transfection reagent Entranster™-D from Engreen company was used to perform the transfection according to the instructions, to co-transfect the P19 cells with target plasmid (PGL3-Oct4P-Basic or pGL3-Basic) and reference plasmid (pCMV-β-gal). The total amount of the plasmid used for transfection was 1 μg/well (the target plasmid:the reference plasmid=2:1). The plasmid was added to 25 μL of serum-free DMEM culture medium, and fully mixed. 3 μL of the transfection reagent was then added to another 25 μL of serum-free DMEM culture medium, mixed well, and allowed to stand for 5 min. The DMEM culture medium containing the transfection reagent was then added to the DMEM culture medium containing the plasmid, and the mixture was immediately pipetted more than 10 times, and allowed to stand at room temperature for 30 min. 250 μL of DMEM culture medium containing 10% fetal calf serum was added to the mixed solution, and gently mixed well. The original cell culture medium in the 24-well plate was discarded, and replaced with the above mixed solution. After being cultured for 4-6 h in a 5% CO2 cell incubator at 37° C., the original culture medium was absorbed and removed, and replaced with 500 μL of DMEM culture medium containing 10% fetal calf serum. […] After subsequent continuous culture for 12-24 h, the cells were lysed, and the luciferase activity was assayed.
Luciferase Reporter Assay System and FluoStar Optima were used to assay the luciferase activity of the transfected cell lysis solution. To 45 μL of the cell lysis solution was added 5 μL of Assay Cocktail reagent, after they were mixed well, 100 μL of Luciferin reaction solution was added, and fluorescence counting in 2 s was measured using FluoStar Optima instrument, which reflected the activity level of the studied plasmid reporter genes expressing firefly luciferase. To another 20 μL of the cell lysis solution was added 37.5 μL of β-gal Buffer followed by 12.5 μL of ONPG (6 mg/mL), and after they were mixed well, they were allowed to stand at 37° C. for 30 min. An absorption value at 450 nm was assayed using a microplate reader, which reflected the activity level of internal reference plasmid pCMV-β-gal expressing β-galactosidase. The ratio between the activity of the firefly luciferase and the activity of the β-galactosidase (β-gal) excluded the difference of the sample transfection efficiency, and could relatively objectively reflect the difference of promoter activity between samples. The relative luciferase activity of different samples was calculated through the following equation: […]

Compound	effect of derivatives on the activity of the Oct4 promoter (relative luciferase activity)
COc1ccc(C=CC(=O)OCc2cccc(COC(=O)C=Cc3ccc(OC)cc3)c2)cc1 [3-[3-(4-methoxyphenyl)acryloyloxymethyl]benzyl 3-(4-methoxyphenyl)acrylate]	have the effect of enhancing the activity of the Oct4 promoter
CCCC=CC(=O)OCCCOC(=O)C=Cc1ccccc1 [3-cinnamoyloxypropyl 3-propylacrylate]	have the effect of enhancing the activity of the Oct4 promoter
COc1ccc(C=CC(=O)OCC#CCOC(=O)C=Cc2ccc(OC)cc2)cc1 [4-[3-(4-methoxyphenyl)acryloyloxy]butyl-2-ynyl 3-(4-methoxyphenyl)acrylate]	have the effect of enhancing the activity of the Oct4 promoter
O=C(/C=C/c1ccc(O)c(O)c1)O[C@@H]1C[C@](O)(C(=O)O)C[C@@H](O)[C@H]1O [chlorogenic acid]	have the effect of enhancing the activity of the Oct4 promoter
CCOC(=O)C(=Cc1ccc(OC(C)=O)cc1)C(=O)OCC [diethyl 4-acetoxybenzylidenemalonate]	have the effect of enhancing the activity of the Oct4 promoter
CCOC(=O)C(C#N)=C(c1ccccc1)c1ccccc1 [ethyl 2-cyano-3,3-diphenylacrylate]	have the effect of enhancing the activity of the Oct4 promoter
CCOC(=O)C=Cc1ccccc1 [ethyl cinnamate]	have the effect of enhancing the activity of the Oct4 promoter
CCOC(=O)c1cc2ccccc2[nH]1 [ethyl indole-2-carboxylate]	have the effect of enhancing the activity of the Oct4 promoter
